In publication PMC11408249, “Non-invasive in vivo imaging of changes in Collagen III turnover in myocardial fibrosis” (npj Imaging, 2024):

Molecular target: T1, COL3 (Homo sapiens, UniProt P02461)
T1 sequence (P02461 154-1221 limits assumed): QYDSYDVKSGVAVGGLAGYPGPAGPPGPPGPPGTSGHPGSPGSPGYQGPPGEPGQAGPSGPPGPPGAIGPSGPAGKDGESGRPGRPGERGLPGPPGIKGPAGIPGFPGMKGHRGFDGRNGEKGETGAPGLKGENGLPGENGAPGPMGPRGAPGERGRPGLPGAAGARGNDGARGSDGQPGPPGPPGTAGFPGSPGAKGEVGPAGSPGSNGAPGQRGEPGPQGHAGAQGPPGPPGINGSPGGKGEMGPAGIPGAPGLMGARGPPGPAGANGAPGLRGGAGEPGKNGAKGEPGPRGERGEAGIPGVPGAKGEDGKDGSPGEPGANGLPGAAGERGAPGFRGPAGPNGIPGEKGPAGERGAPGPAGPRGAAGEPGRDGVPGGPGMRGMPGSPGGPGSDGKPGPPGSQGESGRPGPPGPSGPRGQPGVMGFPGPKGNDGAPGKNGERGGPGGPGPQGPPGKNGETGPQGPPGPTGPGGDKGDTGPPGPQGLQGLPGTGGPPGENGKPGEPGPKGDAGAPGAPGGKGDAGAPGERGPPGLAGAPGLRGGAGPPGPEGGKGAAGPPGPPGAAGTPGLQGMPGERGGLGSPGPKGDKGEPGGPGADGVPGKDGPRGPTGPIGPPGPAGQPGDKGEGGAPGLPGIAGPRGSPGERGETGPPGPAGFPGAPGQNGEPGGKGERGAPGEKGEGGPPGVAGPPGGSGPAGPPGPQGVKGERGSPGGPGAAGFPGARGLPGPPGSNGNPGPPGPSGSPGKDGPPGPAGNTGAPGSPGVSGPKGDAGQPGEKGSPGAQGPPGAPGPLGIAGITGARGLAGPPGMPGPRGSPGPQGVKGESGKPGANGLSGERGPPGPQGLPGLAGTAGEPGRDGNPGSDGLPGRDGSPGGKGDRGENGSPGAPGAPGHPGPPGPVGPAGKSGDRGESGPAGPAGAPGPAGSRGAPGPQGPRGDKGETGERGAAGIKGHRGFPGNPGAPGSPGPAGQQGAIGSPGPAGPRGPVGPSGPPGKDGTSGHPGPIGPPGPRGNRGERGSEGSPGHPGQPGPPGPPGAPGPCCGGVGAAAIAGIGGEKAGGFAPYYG
Experiment: Competition assay: Gd(III) tetrameric probe displaces Eu(III) monomeric probe from COL3
Format: binding
Conditions: 5 µM Eu(III) monomeric probe, Gd tetrameric probe 0.01–200 µM, 1 h room temperature
Procedure: The binding interactions of the tetrameric Gd(III)-labelled probes with COL3 were studied by a competition assay, as Gd(III) is not suitable for TRF based assays. In competition assays, the binding of the Gd(III)-labelled tetrameric probe of interest to the target protein was measured by competition with the corresponding Eu(III)-labelled monomeric probe. Specifically, a row of wells was coated with collagen (COL3) and added with a constant amount of the Eu(III)-labelled probe of interest (e.g. Eu-DOTAMA-CBP1). Wells were then added and incubated with increasing concentrations of the corresponding tetrameric Gd(III)-labelled probes (e.g. [Gd-DOTAMA]4-CBP1). Displacement curves were then obtained by plotting the residual Eu(III) TRF against the concentration of the Gd(III)-labelled probe. Briefly, eight solutions were made containing a fixed concentration of Eu(III)-monomeric probe (5 µM) and increasing concentrations of the Gd-tetrameric probe (0.01–200 µM). Plates pre-coated with COL3 were simultaneously incubated with both compounds for 1 h at room temperature (triplicate wells per plate and 3 independent plates). After the incubation, the Eu(III) TRF assay protocol including the acid extraction and enhancement solution steps were used to measure the binding of the monomeric probe in the presence of the competing tetrameric probe, as previously described. […]

| Substance | displacement of the monomeric Eu(III)-labelled counterpart from COL3 (in words) |
| --- | --- |
| Ac-C-TEFPLRMRDWLKN [[Gd-DOTAMA]4-CBP2, tetrameric probe: tri-lysine scaffold bearing four Gd-DOTAMA units conjugated at the N-terminus of CBP2] | can be observed only at very high concentrations |
| Ac-C-RDKKVAEQS [[Gd-DOTAMA]4-SccCBP1, scrambled tetrameric Gd probe (Ac-C-…), negative control] | cannot |
